Test results from patent US20250009745A1, “CDK INHIBITOR” (SHANGHAI QILU PHARMACEUTICAL RESEARCH AND DEVELOPMENT …, priority 2021, published 2025).

Assays:
[1] = biological target: T1, CDK4 (Homo sapiens, UniProt P11802); assay: CDK enzymology experiment in vitro, capillary mobility shift assay (MSA); type: biochemical; conditions: read-out: CDK4 (nM) inhibitory IC50
T1 construct: purchased Carna Company
Method: (§1) CDK1/CDK2/CDK4/CDK6/CDK7/CDK9 were purchased from Carna Company; Carliper substrate CTD3/substrate 18/substrate 8 were purchased from Gil Biochemical Company; Dinaciclib/Palbociclib were purchased from Selleckchem Company; DMSO was purchased from Sigma Company; 384-well plates were purchased from Corning Company.
(§2) • (1) Preparation of 1×Kinase buffer. • (2) Preparation of compound concentration gradient: Test concentration of the test compound was started at 1 μM, 10 μM or 30 μM, 3-fold dilution, 10 concentrations, detected in duplicate. The test compound was diluted to a 100-fold final concentration with 100% DMSO solution in a 384 source plate. Liquid handler Echo 550 was used to transfer 250 nL of 100-fold final concentration of the compound to the target plate 384-well plate. […] The 384-well plate was centrifuged at 1000 rpm for 30 seconds, and shaken to mix uniformly. • (10) The conversion rate was read with Caliper EZ Reader.
(§3) Where, conversion %_sample is the readings of conversion rate of the sample; conversion %_min: the average value of negative control wells, representing the readings of conversion rate of wells without enzyme activity; conversion %_max: the average value of positive control wells, representing the readings of conversion rate of wells without compound inhibition.
(§4) Taking the log value of the concentration as the X-axis, and the percentage inhibition rate as the Y-axis, the dose-effect curve was fitted using the log(inhibitor) vs. response—Variable slope of the analysis software GraphPad Prism 5 so as to obtain the IC50 value of each compound on the enzyme activity.
(§5) Y=Bottom+(Top−Bottom)/(1+10^((Log IC50−X)*HillSlope)). Calculation formula: […]

[2] = biological target: T2, CDK2 (Homo sapiens, UniProt P24941); assay: as above; type: biochemical; conditions: read-out: CDK2 (nM) inhibitory IC50
T2 construct: purchased Carna Company
Method: as §1, §2, §3, §4, §5

T1 sequence (P11802 whole entry): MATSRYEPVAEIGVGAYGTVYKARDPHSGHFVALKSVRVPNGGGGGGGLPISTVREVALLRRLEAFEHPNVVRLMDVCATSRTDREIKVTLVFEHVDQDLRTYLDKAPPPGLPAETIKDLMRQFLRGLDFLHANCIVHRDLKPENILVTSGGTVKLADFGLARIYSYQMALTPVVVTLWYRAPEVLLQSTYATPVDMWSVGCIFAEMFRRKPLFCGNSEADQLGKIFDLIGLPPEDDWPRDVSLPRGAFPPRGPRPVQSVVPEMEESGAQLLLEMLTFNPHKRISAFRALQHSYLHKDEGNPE
T1 sequence (P30281 whole entry partner): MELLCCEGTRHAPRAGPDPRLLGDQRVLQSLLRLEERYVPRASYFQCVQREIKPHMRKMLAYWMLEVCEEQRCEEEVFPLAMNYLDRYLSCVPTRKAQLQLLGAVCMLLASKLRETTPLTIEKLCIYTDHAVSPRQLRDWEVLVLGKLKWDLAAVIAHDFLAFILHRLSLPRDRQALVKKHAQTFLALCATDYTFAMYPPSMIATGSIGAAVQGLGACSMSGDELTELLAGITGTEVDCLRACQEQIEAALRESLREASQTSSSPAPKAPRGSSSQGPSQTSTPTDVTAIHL

| IC50 [1] | IC50 [2] | SMILES |
| --- | --- | --- |
| 10 to 50 nM | 2.5 to 10 nM | Cn1cc(S(=O)(=O)N2CCC(Nc3ncc(C#N)c(N[C@@H]4CCC[C@@]4(C)O)n3)CC2)cn1 (racemic) [Example 19] |
| 10 to 50 nM | 2.5 to 10 nM | Cn1cc(S(=O)(=O)N2CCC(Nc3ncc(C#N)c(O[C@H]4CC[C@H](O)C4)n3)CC2)cn1 (relative stereo) [Compound 55] |
| 10 to 50 nM | 0.5 to 2.5 nM | Cn1cc(S(=O)(=O)N2CCC(Nc3ncc(C#N)c(O[C@H]4CC[C@@H](O)C4)n3)CC2)cn1 (relative stereo) [Compound 58] |
| 10 to 50 nM | 2.5 to 10 nM | Cn1cc(S(=O)(=O)N2CCC(Nc3ncc(C#N)c(O[C@@H]4CCC[C@@H]4O)n3)CC2)cn1 (relative stereo) [Compound 65] |
| 10 to 50 nM | 2.5 to 10 nM | Cn1cc(S(=O)(=O)N2CCC(Nc3ncc(C#N)c(O[C@@H]4CCC[C@H]4O)n3)CC2)cn1 (relative stereo) [Compound 68] |
| 50 to 100 nM | 2.5 to 10 nM | Cn1cc(S(=O)(=O)N2CCC(Nc3ncc(C(F)(F)F)c(O[C@@H]4COC[C@@H]4O)n3)CC2)cn1 (relative stereo) [Compound 111] |
| 10 to 50 nM | 2.5 to 10 nM | Cn1cc(S(=O)(=O)N2CCC(Nc3ncc(C#N)c(N[C@H]4CC[C@H](O)C4)n3)CC2)cn1 (single isomer, unassigned) [Compound 52] |
| 10 to 50 nM | 2.5 to 10 nM | Cn1cc(S(=O)(=O)N2CCC(Nc3ncc(C#N)c(N[C@@H]4CC[C@@H](O)C4)n3)CC2)cn1 (single isomer, unassigned) [Compound 53] |
| 50 to 100 nM | 2.5 to 10 nM | Cn1cc(S(=O)(=O)N2CCC(Nc3ncc(C#N)c(O[C@H]4CC[C@H](O)C4)n3)CC2)cn1 (single isomer, unassigned) [Compound 56] |
| 10 to 50 nM | 2.5 to 10 nM | Cn1cc(S(=O)(=O)N2CCC(Nc3ncc(C#N)c(O[C@@H]4CC[C@@H](O)C4)n3)CC2)cn1 (single isomer, unassigned) [Compound 57] |
| 2.5 to 10 nM | 0.5 to 2.5 nM | Cn1cc(-c2ccc(S(=O)(=O)N3CCC(Nc4ncc(C#N)c(N[C@@H]5CC[C@@H](O)C5)n4)CC3)cc2)cn1 (single isomer, unassigned) [Compound 63] |
| 10 to 50 nM | 2.5 to 10 nM | Cn1cc(S(=O)(=O)N2CCC(Nc3ncc(C#N)c(O[C@H]4CCC[C@@H]4O)n3)CC2)cn1 (single isomer, unassigned) [Compound 66] |
| 10 to 50 nM | 2.5 to 10 nM | Cn1cc(S(=O)(=O)N2CCC(Nc3ncc(C#N)c(O[C@@H]4CCC[C@H]4O)n3)CC2)cn1 (single isomer, unassigned) [Compound 67] |
| 10 to 50 nM | 2.5 to 10 nM | Cn1cc(S(=O)(=O)N2CCC(Nc3ncc(C#N)c(N[C@H]4CC[C@@H](O)C4)n3)CC2)cn1 (single isomer, unassigned) [Example 12] |
| 10 to 50 nM | 2.5 to 10 nM | Cn1cc(S(=O)(=O)N2CCC(Nc3ncc(C#N)c(N[C@@H]4CC[C@H](O)C4)n3)CC2)cn1 (single isomer, unassigned) [Example 13] |
| 100 to 1000 nM | 10 to 50 nM | Cn1cc(S(=O)(=O)N2CCC(Nc3ncc(C#N)c(N[C@@H]4CCC[C@@]4(C)O)n3)CC2)cn1 (single isomer, unassigned) [Example 20] |
| 10 to 50 nM | 2.5 to 10 nM | Cn1cc(S(=O)(=O)N2CCC(Nc3ncc(C#N)c(N[C@H]4CCC[C@]4(C)O)n3)CC2)cn1 (single isomer, unassigned) [Example 21] |
| 10 to 50 nM | 10 to 50 nM | CC(C)S(=O)(=O)N1CCC(Nc2ncc(C#N)c(NC3CCCC3)n2)CC1 [Compound 29] |
| 10 to 50 nM | 2.5 to 10 nM | Cn1ccc(S(=O)(=O)N2CCC(Nc3ncc(C#N)c(NC4CCCC4)n3)CC2)n1 [Compound 33] |
| 2.5 to 10 nM | 2.5 to 10 nM | N#Cc1cnc(NC2CCN(S(=O)(=O)c3ccccn3)CC2)nc1NC1CCCC1 [Compound 36] |
| 2.5 to 10 nM | 2.5 to 10 nM | Cn1cc(S(=O)(=O)N2CCC(Nc3ncc(C#N)c(NC4CCCC4(F)F)n3)CC2)cn1 (stereo not shown) [Compound 37] |
| 50 to 100 nM | 10 to 50 nM | C[C@@H]1COCCN1c1nc(NC2CCN(S(=O)(=O)c3cnn(C)c3)CC2)ncc1C#N [Compound 38] |
| 2.5 to 10 nM | 0.5 to 2.5 nM | CN(c1nc(NC2CCN(S(=O)(=O)c3cnn(C)c3)CC2)ncc1C#N)C1CCCC1 [Compound 39] |
| 2.5 to 10 nM | 0.5 to 2.5 nM | Cn1cc(S(=O)(=O)N2CCC(Nc3ncc(C(F)(F)F)c(OC4CCCC4)n3)CC2)cn1 [Compound 40] |
| 10 to 50 nM | 2.5 to 10 nM | Cn1cc(S(=O)(=O)N2CCC(Nc3ncc(C#N)c(NC4CCC(F)(F)C4)n3)CC2)cn1 (stereo not shown) [Compound 41] |
| 10 to 50 nM | 10 to 50 nM | Cn1cc(S(=O)(=O)N2CCC(Nc3ncc(C#N)c(NC(C)(C)C)n3)CC2)cn1 [Compound 42] |

| IC50 [1] | IC50 [2] | SMILES |
| --- | --- | --- |
| 100 to 1000 nM | 10 to 50 nM | Cn1cc(S(=O)(=O)N2CCC(Nc3ncc(C#N)c(N[C@@H]4CCOC4)n3)CC2)cn1 [Compound 43] |
| 100 to 1000 nM | 10 to 50 nM | Cn1cc(S(=O)(=O)N2CCC(Nc3ncc(C#N)c(N[C@H]4CCC[C@@H]4O)n3)CC2)cn1 [Compound 46] |
| 10 to 50 nM | 2.5 to 10 nM | Cn1cc(S(=O)(=O)N2CCC(Nc3ncc(C#N)c(N[C@H]4CCC[C@H]4O)n3)CC2)cn1 [Compound 48] |
| 10 to 50 nM | 0.5 to 2.5 nM | Cn1cc(-c2ccc(S(=O)(=O)N3CCC(Nc4ncc(C#N)c(N[C@@H]5CCC[C@H]5O)n4)CC3)cc2)cn1 [Compound 50] |
| 10 to 50 nM | 0.5 to 2.5 nM | Cn1cc(S(=O)(=O)N2CCC(Nc3ncc(C(F)(F)F)c(N[C@@H]4CCC[C@H]4O)n3)CC2)cn1 [Compound 54] |
| 2.5 to 10 nM | 2.5 to 10 nM | Cn1cc(-c2ccc(S(=O)(=O)N3CCC(Nc4ncc(C#N)c(N[C@H]5CCC[C@@H]5O)n4)CC3)cc2)cn1 [Compound 59] |
|  | 0.5 to 2.5 nM | Cn1cc(-c2ccc(S(=O)(=O)N3CCC(Nc4ncc(C#N)c(N[C@@H]5CCC[C@H]5O)n4)CC3)cc2)cn1 [Compound 60] |
| 2.5 to 10 nM | 0.5 to 2.5 nM | Cn1cc(-c2ccc(S(=O)(=O)N3CCC(Nc4ncc(C#N)c(N[C@@H]5CCC[C@@H]5O)n4)CC3)cc2)cn1 [Compound 61] |
| 10 to 50 nM | 2.5 to 10 nM | Cn1cc(S(=O)(=O)N2CCC(Nc3ncc(C#N)c(O[C@H]4CCOC4)n3)CC2)cn1 [Compound 64] |
| 100 to 1000 nM | 10 to 50 nM | C[C@@H](CO)Nc1nc(NC2CCN(S(=O)(=O)c3cnn(C)c3)CC2)ncc1C#N [Compound 69] |
| 50 to 100 nM | 10 to 50 nM | C[C@H](CO)Nc1nc(NC2CCN(S(=O)(=O)c3cnn(C)c3)CC2)ncc1C#N [Compound 70] |
| 10 to 50 nM | 2.5 to 10 nM | CN1CC[C@@H](Nc2nc(NC3CCN(S(=O)(=O)c4cnn(C)c4)CC3)ncc2C#N)C1 [Compound 71] |
| 10 to 50 nM | 2.5 to 10 nM | CN1CC[C@H](Nc2nc(NC3CCN(S(=O)(=O)c4cnn(C)c4)CC3)ncc2C#N)C1 [Compound 72] |
| 100 to 1000 nM | 50 to 100 nM | CN1CC[C@@H](Oc2nc(NC3CCN(S(=O)(=O)c4cnn(C)c4)CC3)ncc2C#N)C1 [Compound 73] |
| 50 to 100 nM | 10 to 50 nM | CN1CC[C@H](Oc2nc(NC3CCN(S(=O)(=O)c4cnn(C)c4)CC3)ncc2C#N)C1 [Compound 74] |
| 10 to 50 nM | 10 to 50 nM | C[C@H]1COCCN1c1nc(NC2CCN(S(=O)(=O)c3cnn(C)c3)CC2)ncc1C#N [Compound 75] |
| 10 to 50 nM | 2.5 to 10 nM | Cn1cc(S(=O)(=O)N2CCC(Nc3ncc(C#N)c(NC4CCC4)n3)CC2)cn1 [Compound 76] |
| 10 to 50 nM | 2.5 to 10 nM | Cn1cc(S(=O)(=O)N2CCC(Nc3ncc(C#N)c(N[C@H]4C[C@@H](O)C4)n3)CC2)cn1 [Compound 77] |
| 10 to 50 nM | 2.5 to 10 nM | Cn1cc(S(=O)(=O)N2CCC(Nc3ncc(C#N)c(NC4CC(F)(F)C4)n3)CC2)cn1 [Compound 78] |
| 10 to 50 nM | 2.5 to 10 nM | Cn1cc(S(=O)(=O)N2CCC(Nc3ncc(C#N)c(NC4CCCCC4)n3)CC2)cn1 [Compound 79] |
| 100 to 1000 nM | 2.5 to 10 nM | Cn1cc(S(=O)(=O)N2CCC(Nc3ncc(C#N)c(NC4COC4)n3)CC2)cn1 [Compound 80] |
| 100 to 1000 nM | 10 to 50 nM | Cn1cc(S(=O)(=O)N2CCC(Nc3ncc(C#N)c(NC4CCOCC4)n3)CC2)cn1 [Compound 81] |
| 10 to 50 nM | 2.5 to 10 nM | CN1CCC(S(=O)(=O)N2CCC(Nc3ncc(C#N)c(NC4CCCC4)n3)CC2)CC1 [Compound 85] |
| 10 to 50 nM | 0.5 to 2.5 nM | Cn1cc(S(=O)(=O)N2CCC(Nc3ncc(C(F)(F)F)c(O[C@@H]4CCOC4)n3)CC2)cn1 [Compound 88] |
| 50 to 100 nM | 10 to 50 nM | Cn1cc(S(=O)(=O)N2CCC(Nc3ncc(C#N)c(O[C@@H]4CCOC4)n3)CC2)cn1 [Compound 89] |
| 2.5 to 10 nM | 0.5 to 2.5 nM | N#Cc1cnc(NC2CCN(S(=O)(=O)c3ccc(C4=CCNCC4)cc3)CC2)nc1N[C@@H]1CCC[C@H]1O [Compound 91] |
